The subject of one assay is bromodomain. Nature of the assay: at least one of the bromodomain cell assays of Example 57. In kind it is cell-based. As to conditions: at least one of the bromodomain cell assays described in Example 57; read-out: IC50 in at least one of the bromodomain cell assays.
A further assay has as its system MV-4-11 cells. Nature of the assay: Oncology cell growth assay MV-4-11 (CellTiter Glo). The class given is cell-based. As to conditions: Homo sapiens, MV4-11, 72 h; read-out: Cell activity (IC50 μM) MV-4-11 3d-Growth. Put shortly:
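Growth read by CellTiter Glo luminescence after 72 h compound treatment of MLL-AF4-bearing MV-4-11 cells (3000/well). Titration: 8 points, 1:3 steps, maximum 10 μM, 0.2% DMSO final. Data normalized to DMSO wells, four-parameter fit gives pIC50.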

In another assay the target is BRD4-BD1 (44-164) (Homo sapiens (Human), UniProt O60885). Put plainly: Alphascreen binding assay BRD4-BD1. The settings on record: BRD4(1) H4; read-out: Biochemical activity (IC50 μM) BRD4(1) H4. The method in brief:
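AlphaScreen signal (nickel acceptor, streptavidin donor beads, 7.5 µg/ml each, read 30 min after addition) reports displacement of biotin-H4 K5/K8/K12/K16-acetyl peptide from His-BRD4 BD1 (44-164) or tandem BD12 (1-477).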

A further assay has as its target BRD4-BD12 (1-477) (Homo sapiens (Human), UniProt O60885). Put plainly: Alphascreen binding assay BRD4-BD12. The settings on record: BRD4(1 2) H4; read-out: Biochemical activity (IC50 μM) BRD4(1 2) H4. Put shortly: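 In this competition format, compounds displace a biotinylated tetra-acetyl H4 peptide from E. coli-expressed human BRD4 bromodomain constructs captured on nickel chelate beads. The reaction runs at pH 7.5 with 2 mM DTT and detergent for 1 h at room temperature before a 30 min bead step.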
In general terms: Alpha assays give light when donor and acceptor beads are brought close together.

For orientation: IC50 means the concentration that gives 50% inhibition.

As to `Cc1noc(C)c1-c1cnc2c(I)cn(CC3CC(F)(F)C3)c2c1` [P-0303, 4-[1-[(3,3-difluorocyclobutyl)methyl]-3-iodo-pyrrolo[3,2-b]pyridin-6-yl]-3,5-dimethyl-isoxazole], the IC50 is under 10 µM with bromodomain, under 1 µM with MV-4-11 cells, under 1 µM at BRD4-BD1 (44-164) and under 1 µM on BRD4-BD12 (1-477).
Turning to `Cc1noc(C)c1-c1cnc2c(-c3cnn(C(F)F)c3)cn(CC3CC(F)(F)C3)c2c1` [P-0304], the 50% inhibitory concentration (IC50) with bromodomain was under 10 µM; with MV-4-11 cells, under 1 µM; at BRD4-BD1 (44-164) it was under 1 µM; on BRD4-BD12 (1-477), under 1 µM.
For the compound `Cc1noc(C)c1-c1cnc2c(-c3cnn(CC(F)(F)F)c3)cn(CC3CC(F)(F)C3)c2c1` [P-0305, 4-[1-[(3,3-difluorocyclobutyl)methyl]-3-[1-(2,2,2-trifluoroethyl)pyrazol-4-yl]pyrrolo[3,2-b]pyridin-6-yl]-3,5-dimethyl-isoxazole], the IC50 is under 10 µM with bromodomain, under 1 µM in the assay on MV-4-11 cells, under 1 µM at BRD4-BD1 (44-164) and under 1 µM at BRD4-BD12 (1-477).
Take `Cc1noc(C)c1-c1cnc2c(Cl)cn(CC3CCC(F)(F)CC3)c2c1` [P-0306, 4-[3-chloro-1-[(4,4-difIuorocyclohexyl)methyl]pyrrolo[3,2-b]pyridin-6-yl]-3,5-dimethyl-isoxazole]: the IC50 in the assay on bromodomain is under 10 µM; in the assay on MV-4-11 cells it was under 1 µM; on BRD4-BD1 (44-164), under 1 µM; at BRD4-BD12 (1-477) it was under 1 µM.
With `Cc1noc(C)c1-c1cnc2c(Cl)cn(C(CC#N)C3CC3)c2c1` (centres unmarked) [P-0307, 3-[3-chloro-6-(3,5-dimethylisoxazol-4-yl)pyrrolo[3,2-b]pyridin-1-yl]-3-cyclopropyl-propanenitrile], the IC50 with bromodomain was under 10 µM; in the assay with MV-4-11 cells it was 1 to 10 µM; at BRD4-BD1 (44-164) it was under 1 µM; on BRD4-BD12 (1-477) it was under 1 µM.
In the case of `Cc1noc(C)c1-c1cnc2c(Br)cn(C(CC#N)C3CC3)c2c1` (centres unmarked) [P-0308, 3-[3-bromo-6-(3,5-dimethylisoxazol-4-yl)pyrrolo[3,2-b]pyridin-1-yl]-3-cyclopropxl-propanenitrile], the IC50 was under 10 µM in the assay on bromodomain, under 1 µM with MV-4-11 cells, under 1 µM at BRD4-BD1 (44-164) and under 1 µM on BRD4-BD12 (1-477).
Take `Cc1noc(C)c1-c1cnc2c(I)cn(C(CC#N)C3CC3)c2c1` (centres unmarked) [P-0309, 3-cyclopropyl-3-[6-(3,5-dimethylisoxazol-4-yl)-3-iodo-pyrrolo[3,2-b]pyridin-1-yl]propanenitrile]: the IC50 in the assay with bromodomain was under 10 µM; with MV-4-11 cells, under 1 µM; at BRD4-BD1 (44-164), under 1 µM; at BRD4-BD12 (1-477), under 1 µM.
For the compound `Cc1nnn(C)c1-c1cnc2c(-c3cnn(C)c3)cn(CC3CCC(F)(F)CC3)c2c1` [P-0310, 1-[(4,4-difluorocyclohexyl)methyl]-6-(3,5-dimethyltriazol-4-yl)-3-(1-methylpyrazol-4-yl)pyrrolo[3,2-b]pyridine], the IC50 with bromodomain is under 10 µM; in the assay on MV-4-11 cells it was under 1 µM; at BRD4-BD1 (44-164), under 1 µM; on BRD4-BD12 (1-477) it was under 1 µM.
For the compound `Cc1nnn(C)c1-c1cnc2c(-c3cnn(CC(F)(F)F)c3)cn(CC3CCC(F)(F)CC3)c2c1` [P-0311, 1-[(4,4-difluorocyclohexyl)methyl]-6-(3,5-dimethyltriazol-4-yl)-3-[1-(2,2,2-trifluoroethyl)pyrazol-4-yl]pyrrolo[3,2-b]pyridine], the 50% inhibitory concentration (IC50) with bromodomain is under 10 µM; with MV-4-11 cells it was under 1 µM; at BRD4-BD1 (44-164), under 1 µM; on BRD4-BD12 (1-477), 1 to 10 µM.
With `COc1ccc(-c2cnc3ccn(CC4CCC(F)(F)CC4)c3c2)cn1` [P-0312, 1-((4,4-difluorocyclohexyl)methyl]-6-(6-methoxy-3-pyridyl)pyrrolo[3,2-b]pyridine], the IC50 in the assay with bromodomain was under 10 µM; in the assay on MV-4-11 cells, 10 to 200 µM; at BRD4-BD1 (44-164) it was 1 to 10 µM; at BRD4-BD12 (1-477), 10 to 200 µM.
On to `Cc1ccc(-c2cnc3ccn(CC4CCC(F)(F)CC4)c3c2)cn1` [P-0313, 1-[(4,4-difluorocyclohexyl)methyl]-6-(6-methyl-3-pyridyl)pyrrolo[3,2-b]pyridine], for which the concentration for half-maximal inhibition (IC50) was under 10 µM in the assay with bromodomain, 10 to 200 µM in the assay with MV-4-11 cells, 10 to 200 µM on BRD4-BD1 (44-164) and under 1 µM on BRD4-BD12 (1-477).
With `Cc1noc(C)c1-c1cnc2c(-c3cnn(C(F)F)c3)cn(C(CC#N)C3CCOCC3)c2c1` (centres unmarked) [P-0314, 3-[3-[1-(difluoromethyl)pyrazol-4-yl]-6-(3,5-dimethylisoxazol-4-yl)pyrrolo[3,2-b]pyridin-1-yl]-3-tetrahydropyran-4-yl-propanenitrile], the concentration for half-maximal inhibition (IC50) in the assay with bromodomain was under 10 µM; with MV-4-11 cells, under 1 µM; on BRD4-BD1 (44-164), under 1 µM; at BRD4-BD12 (1-477), under 1 µM.
As for `Cc1noc(C)c1-c1cnc2c(-c3cnn(CC(F)(F)F)c3)cn(C(CC#N)C3CC3)c2c1` (centres unmarked) [P-0315, 3-cyclopropyl-3-[6-(3,5-dimethylisoxazol-4-yl)-3-[1-(2,2,2-trifluoroethyl)pyrazol-4-yl]pyrrolo[3,2-b]pyridin-1-yl]propanenitrile], the half-maximal inhibitory concentration (IC50) is under 10 µM in the assay with bromodomain, under 1 µM in the assay with MV-4-11 cells, under 1 µM at BRD4-BD1 (44-164) and under 1 µM at BRD4-BD12 (1-477).
With `Cc1noc(C)c1-c1cnc2c(-c3cnn(C)c3)cn(C(CC#N)C3CC3)c2c1` (centres unmarked) [P-0316, 3-cyclopropyl-3-[6-(3,5-dimethylisoxazol-4-yl)-3-(1-methylpyrazol-4-yl)pyrrolo[3,2-b]pyridin-1-yl]propanenitrile], the half-maximal inhibitory concentration (IC50) in the assay on bromodomain is under 10 µM; in the assay on MV-4-11 cells it was under 1 µM; on BRD4-BD1 (44-164), under 1 µM; on BRD4-BD12 (1-477) it was under 1 µM.
As for `Cc1noc(C)c1-c1cnc2c(-c3cnn(CC(F)(F)F)c3)cn(Cc3ccccc3)c2c1` [P-0317, 4-[1-benzyl-3-[1-(2,2,2-trifluoroethyl)pyrazol-4-yl]pyrrolo[3,2-b]pyridin-6-yl]-3,5-dimethyl-isoxazole], the half-maximal inhibitory concentration (IC50) in the assay on bromodomain is under 10 µM; in the assay with MV-4-11 cells, under 1 µM; at BRD4-BD1 (44-164) it was under 1 µM; on BRD4-BD12 (1-477) it was under 1 µM.
`Cc1noc(C)c1-c1cnc2c(I)cn(Cc3ccccc3)c2c1` [P-0318, 4-(1-benzyl-3-iodo-pyrrolo[3,2-b]pyridin-6-yl)-3,5-dimethyl-isoxazole]: the IC50 with bromodomain was under 10 µM; with MV-4-11 cells, under 1 µM; on BRD4-BD1 (44-164), under 1 µM; on BRD4-BD12 (1-477), under 1 µM.
With `Cc1noc(C)c1-c1cnc2c(I)cn(Cc3ncccn3)c2c1` [P-0319, 4-[3-iodo-1-(pyrimidin-2-ylmethyl)pyrrolo[3,2-b]pyridin-6-yl]-3,5-dimethyl-isoxazole], the 50% inhibitory concentration (IC50) in the assay on bromodomain was under 10 µM; in the assay with MV-4-11 cells, under 1 µM; on BRD4-BD1 (44-164) it was under 1 µM; on BRD4-BD12 (1-477) it was under 1 µM.
Take `Cc1noc(C)c1-c1cnc2c(-c3cnn(CC(F)(F)F)c3)cn(C(C)c3ccccn3)c2c1` (centres unmarked) [P-0320, 3,5-dimethyl-4-[1-[1-(2-pyridyl)ethyl]-3-[1-(2,2,2-trifluoroethyl)pyrazol-4-yl]pyrrolo[3,2-b]pyridin-6-yl]isoxazole]: the concentration for half-maximal inhibition (IC50) in the assay on bromodomain was under 10 µM; with MV-4-11 cells it was under 1 µM; at BRD4-BD1 (44-164), under 1 µM; on BRD4-BD12 (1-477), under 1 µM.
On to `Cc1noc(C)c1-c1cnc2c(-c3cnn(CC(F)(F)F)c3)cn(CC3(F)CCC(F)(F)CC3)c2c1` [P-0321, 3,5-dimethyl-4-(1-[(1,4,4-trifluorocyclohexyl)methyl]-3-[1-(2,2,2-trifluoroethyl)pyrazol-4-yl]pyrrolo[3,2-b]pyridin-6-yl]isoxazole], for which the IC50 is under 10 µM in the assay with bromodomain, under 1 µM in the assay with MV-4-11 cells, under 1 µM at BRD4-BD1 (44-164) and 1 to 10 µM at BRD4-BD12 (1-477).
With `Cc1nnc(CCl)n1-c1cnc2[nH]ccc2c1` [P-0322, 5-[3-(chloromethyl)-5-methyl-1,2,4-triazol-4-yl]-1H-pyrrolo[2,3-b]pyridine], the IC50 in the assay on bromodomain was under 10 µM; with MV-4-11 cells, 1 to 10 µM; at BRD4-BD1 (44-164), 10 to 200 µM; on BRD4-BD12 (1-477), 10 to 200 µM.
As for `Cc1onc(NC(=O)OC(C)(C)C)c1-c1cnc2ccn(CC3CCC(F)(F)CC3)c2c1` [P-0323, tert-butyl N-[4-[1-[(4,4-difluorocyclohexyl)methyl]pyrrolo[3,2-b]pyridin-6-yl]-5-methyl-isoxazol-3-yl]carbamate], the IC50 was under 10 µM with bromodomain, 10 to 200 µM in the assay on MV-4-11 cells, 10 to 200 µM on BRD4-BD1 (44-164) and under 1 µM at BRD4-BD12 (1-477).
Regarding `Cc1noc(C)c1-c1cnc2c(-c3ccc(C(=O)O)cc3)cn(CC3CCC(F)(F)CC3)c2c1` [P-0324, 4-[1-[(4,4-difluorocyclohexyl)methyl]-6-(3,5-dimethylisoxazol-4-yl)pyrrolo[3,2-b]pyridin-3-yl]benzoic acid], the concentration for half-maximal inhibition (IC50) with bromodomain is under 10 µM; with MV-4-11 cells, under 1 µM; at BRD4-BD1 (44-164), under 1 µM; on BRD4-BD12 (1-477), under 1 µM.
In the case of `Cc1noc(C)c1-c1cnc2c(-c3cnn(C)c3)cn(Cc3ncccn3)c2c1` [P-0325, 3,5-dimethyl-4-[3-(1-methylpyrazol-4-yl)-1-(pyrimidin-2-ylmethyl)pyrrolo[3,2-b]pyridin-6-yl]isoxazole], the 50% inhibitory concentration (IC50) is under 10 µM in the assay with bromodomain, under 1 µM with MV-4-11 cells, under 1 µM at BRD4-BD1 (44-164) and under 1 µM on BRD4-BD12 (1-477).

These data come from patent US10519177B2, “Heterocyclic compounds and uses thereof” (Plexxikon Inc., priority 2013, dated 2019).
